Source: US10045961B2, “Use of sting agonists to treat chronic hepatitis B virus infection” (DREXEL UNIVERSITY, priority 2013, dated 2018)
“Also recorded” adds a separate entry of the source.

Legend:
[1] = test system: HBV DNA replication in AML12HBV10 cells; experiment: Direct treatment of AML12HBV10 cells, cytoplasmic HBV core DNA by Southern blot; conditions: for HBV DNA replication, direct treatment: AML12HBV10 cells treated directly for 2 days, cytoplasmic HBV core DNA; for HBV DNA replication, cytokine treatment: AML12HBV10 cells treated for 4 days
Text: AML12HBV10, an immortalized murine hepatocyte (AML12)-derived cell line supporting high level of HBV replication in a tetracycline (tet)-inducible manner, was maintained as described in Xu C, et al. Interferons accelerate decay of replication-competent nucleocapsids of hepatitis B virus.
HBV core DNA extraction from AML12HBV10 cells as well as analyses by Southern blot hybridization and real-time PCR assays were as described previously in Xu C, et al. Interferons accelerate decay of replication-competent nucleocapsids of hepatitis B virus. […] Total cellular RNA was extracted using TRIzol reagent (Invitrogen). HBV RNA was analyzed by Northern blot hybridization with an α-^32P-UTP-labeled full-length minus-stranded RNA probe. HBV capsid and capsid associated viral DNA was analyzed by a native agarose gel electrophoresis followed by transfer to a nitrocellulose membrane. HBV capsids were detected by probing the membrane with an antibody against HBV core protein followed by visualizing with LI-COR Odyssey system. Capsid-associated DNA was detected by hybridization with radioactively labeled HBV riboprobe.
(§4) The assay system was first validated with known TLR agonists. […] Twenty-four hours later, the cells were treated with the indicated concentrations of TLR agonists (direct treatment) (FIG. 1B). […] Cytoplasmic HBV core DNA was analyzed by Southern blot hybridization two days post treatment.
(§5) AMLHBV10 cells, grown in Dulbecco's Modification of Eagle's Medium (DMEM)/F12 medium with 1 μg/ml of tetracycline were seeded in 12-well plate at density of 1×10^5 cell/well for 1 day in absence of tetracycline to release HBV replication. […] HBV core DNA was extracted from AML12HBV10 cells 2 days post treatment, and detected by Southern blot assay.
Cytoplasmic HBV core DNA was analyzed by Southern blot hybridization. NT controls were as described in FIG. 1B (FIG. 3B). […] AML12HBV10 cells treated with the indicated concentrations of mouse alpha IFN (mIFN-α) for 2 days served as positive controls. Cytoplasmic HBV core DNA was analyzed by Southern blot hybridization (FIG. 3D).

[2] = test system: HBV DNA replication in AML12HBV10 cells; experiment: Indirect treatment: conditioned media from treated RAW264.7 macrophages applied to AML12HBV10 cells, HBV core DNA by Southern blot; conditions: AML12HBV10 cells treated 2 days with 50% conditioned media from RAW264.7 cells treated 12 h
Procedure: as §4, §5
Intracellular HBV RNA was determined by Northern blot (ribosomal RNA served as loading control). HBV core protein was determined by Western blot assay using antibody against carboxyl terminal 14 amino acid of HBV core protein (β-actin served as loading control). HBV nucleocapsids were examined by a particle gel assay to detect both the intact nucleocapsids and capsid-associated HBV DNA. Encapsidated HBV (core DNA) replication intermediates (RC, DSL and SS) were determined by Southern blot assay.
Using the assay system described above, 75 flavonoids in MicroSource compound collection (MicroSource Discovery Systems, Inc.) were tested again. […] Cytoplasmic HBV core DNA was analyzed by Southern blot hybridization. […] AML12HBV10 cells treated with the indicated concentrations of mouse alpha IFN (mIFN-α) for 2 days served as positive controls. Cytoplasmic HBV core DNA was analyzed by Southern blot hybridization (FIG. 3D).

TBK1 = experiment: Western blot of TBK1 phosphorylation in RAW264.7 cells; format: cell-based, mouse; conditions: 125 μM DMXAA
Text: (§1) Total cellular proteins were fractioned by SDS-PAGE and transferred onto PVDF membranes. Total and phosphorylated STING, TBK1, p38, JNK and Erk as well as IkB-α were detected by Western blot assays with their specific antibodies. β-actin served as a loading control.

IκBα = experiment: Western blot of IκBα degradation in RAW264.7 cells; format: cell-based, mouse; conditions: 125 μM DMXAA
Text: as §1

MAPK pathways = experiment: Western blot of MAPK pathway activation (phosphorylated p38α, JNK, ERK) in RAW264.7 cells; format: cell-based, mouse
Text: as §1

HBV capsids = experiment: HBV core protein, capsids and capsid-associated DNA in AML12HBV10 cells after indirect treatment; format: cell-based, hepatitis B virus; conditions: 2 days; for amount of HBV capsid protein: Western blot
Procedure: HBV core DNA extraction from AML12HBV10 cells as well as analyses by Southern blot hybridization and real-time PCR assays were as described previously in Xu C, et al. Interferons accelerate decay of replication-competent nucleocapsids of hepatitis B virus. J Virol 2010; 84:9332-40, and Campagna M R, et al. Sulfamoylbenzamide Derivatives Inhibit the Assembly of Hepatitis B Virus Nucleocapsids. J Virol 2013. Total cellular RNA was extracted using TRIzol reagent (Invitrogen). HBV RNA was analyzed by Northern blot hybridization with an α-^32P-UTP-labeled full-length minus-stranded RNA probe. HBV capsid and capsid associated viral DNA was analyzed by a native agarose gel electrophoresis followed by transfer to a nitrocellulose membrane. HBV capsids were detected by probing the membrane with an antibody against HBV core protein followed by visualizing with LI-COR Odyssey system. Capsid-associated DNA was detected by hybridization with radioactively labeled HBV riboprobe.
In order to map the HBV replication step(s) being inhibited by DMXAA-induced antiviral response in macrophages, AML12HBV10 cells were treated with conditioned media harvested from TLR agonist- or DMXAA-treated RAW264.7 cells. […]. The AML12HBV10 cells were harvested 2 days after treatment for the following analysis: (FIG. 4A) Intracellular HBV RNA was determined by Northern blot (pgRNA, pre-genomic RNA, envRNAs, viral mRNAs specifying envelope proteins. 18S ribosomal RNA (rRNA) served as loading controls); (FIG. 4B) HBV core protein was determined by Western blot assay using total cell lysate (β-actin served as a loading control); the amounts of HBV capsids (FIG. 4C) and capsid-associated HBV DNA (FIG. 4D) were determined by a native agarose gel assay; and (FIG. 4E) Cytoplasmic HBV core DNA was determined by Southern blot hybridization.

[3] = test system: HBV DNA in AML12HBV10 cells; experiment: Blockade of type I IFN receptor (IFNAR1 antibody) in AML12HBV10 cells, HBV DNA by real-time PCR; format: cell-based, hepatitis B virus; conditions: AML12HBV10 cells pre-incubated with 10 μg/ml IFNAR1 antibody; mIFN-α directly or conditioned media from DMXAA-treated RAW264.7 cells
Procedure: AML12HBV10 cells cultured in absence of tetracycline for 1 day, were incubated either with or without 10 μg/ml of a monoclonal antibody against type I interferon receptor IFNAR1 (Ab INFAR) at 37° C. for 1 h, followed by treatment for 2 days with the indicated concentrations of mIFN-α (FIG. 7A) or 50% of conditioned media harvested from RAW264.7 cells (treated with the indicated concentrations of DMXAA for 12 h) (FIG. 7B). Cytolplasmic HBV DNA were quantified by a real-time PCR assay and data (mean±standard deviation, N=4) were presented as percentage of mock-treated controls (NT). AML12HBV10 cells cultured in the absence of tetracycline were treated with the indicated concentrations of IL-1, IL-6 or TNF-α for 4 days (FIG. 7C). Cytoplasmic HBV core DNA was analyzed by Southern blot hybridization.

[4] = test system: HBV DNA in AML12HBV10 cells; experiment: Conditioned media from shSTING RAW264.7 cells on AML12HBV10 cells, HBV core DNA by real time PCR; format: cell-based, hepatitis B virus; conditions: 2 days
HBV = HBV DNA hydrodynamic mouse model, intrahepatic HBV core DNA; format: in vivo, NOD/SCID mice; conditions: single 25 mg/kg intraperitoneal dose, 24 h after treatment
Procedure: (§2) Ten-week-old female NOD/SCID mice were purchased from Vital River Laboratory Animal Technology Co. Ltd. All experiments were conducted with Institutional Animal Care and Use Committee approval. To establish HBV hydrodynamic model, 13.5 μg of plasmid pTmcsHBV1.3 expressing 1.3mer HBV genome and 4.5 μg of pCMV-SB expressing the Sleeping Beauty transposase were injected through tail vein, according to procedures previously described. To test the efficacy of DMXAA in vivo, 7 days post injection, mice were treated with either DMXAA (in PBS with 7.5% sodium Bicarbonate) at 25 mg/kg or vehicle, via intraperitoneal injection. Mice were sacrificed 24 h after treatment. Intrahepatic HBV core DNA was extracted and quantified by using a real-time PCR assay. Intrahepatic total RNA was extracted and the interferon stimulated genes (ISGs) OAS1b and viperin mRNAs were determined by real-time RT-PCR assay. Weight of individual mouse was monitored before and 24 h after the treatment.
(§3) To further validate the antiviral effects of DMXAA in vivo, NOD/SCID mice were hydrodynamically injected with HBV 1.3mer plasmid to establish HBV replication in hepatocytes. […] (FIG. 9A) Twenty-four hours post treatment, HBV core DNA was extracted from livers and analyzed by a real-time PCR assay. […] (FIGS. 9B and 9C) Total RNA was extracted from livers and mRNA levels of OAS1b and viperin were analyzed by real-time RT-PCR assay. […]

[5] = test system: interferon stimulated genes (ISGs) OAS1b and viperin; experiment: HBV hydrodynamic mouse model, intrahepatic ISG mRNA (OAS1b, viperin); format: in vivo, NOD/SCID mice; conditions: single 25 mg/kg intraperitoneal dose, 24 h
Procedure: as §2, §3

[6] = HBV hydrodynamic mouse model, body weight; format: in vivo, NOD/SCID mice; conditions: single 25 mg/kg intraperitoneal dose, 24 h; data not shown
Procedure: as §2

IFN-β mRNA = experiment: qRT-PCR of IFN-β mRNA in RAW264.7 cells
Procedure: (§6) For cytokine gene expression analysis, total RNA was extracted using TRIzol reagent. cDNAs were synthesized using SuperScript III (Invitrogen). Quantitative real-time PCR analysis was performed using a LightCycler 480 II (Roche).
(§7) The amounts of mRNA specifying the specific cytokines and chemokines were quantified by real-time RT-PCR assays. Data (mean±standard deviation, N=3) were expressed as fold induction of gene expression relative to untreated controls.

[7] = test system: proinflammatory cytokines (IL6, IL1, IL10, TNF-α, IL12) and chemokine CXCL10; experiment: qRT-PCR of proinflammatory cytokine and chemokine mRNA in RAW264.7 cells
Procedure: as §6, §7

[8] = test system: HBV replication in human hepatoma cells (HepDES19); experiment: Conditioned medium from DMXAA-treated THP-1hSTINGS162 cells on DES19 human hepatoma cells, HBV core DNA by real time PCR; conditions: media from THP1-hSTING/S162 cells treated 12 hrs, 6 days
Procedure: Additionally, THP-1hSTINGS162 cells were treated with DMXAA for 12 hrs, conditioned medium with indicated dilution were then transferred to DES19, a human hepatoma cell line harboring HBV replication. HBV core DNA was extracted 6 days post treatment, and quantified by real time PCR assay. HBV DNA expression levels (means±standard deviations, N=3) were expressed as percentage relative to mock treated control. DES19 cells treated with IFN-α served as positive control (FIG. 10B).

O=c1cc(-c2ccccc2O)oc2cc(O)ccc12 [7, 2′-dihydroxyflavone]
HBV DNA replication, direct treatment [1]: not direct
HBV DNA replication, indirect treatment [2]: indirect, but not direct, antiviral activity against HBV
HBV DNA replication, indirect treatment ([2]; listed as 7, 2′ dihydroxyflavone): induces antiviral activity against HBV

Cc1ccc2c(=O)c3cccc(CC(=O)O)c3oc2c1C [DMXAA, 5,6-dimethylxanthenone-4-acetic acid]
phosphorylation of TBK1 (TBK1): efficiently induced phosphorylation of TBK1
degradation of IκBα (IκBα): induced degradation of IκBα
time at which activation of MAPK pathways (phosphorylated p38α, JNK, ERK) was evident (MAPK pathways): 90 min
amounts of HBV DNA replication intermediates (HBV capsids): decreased
amount of HBV capsid protein (HBV capsids): reduced the amounts of HBV capsid protein
antiviral response after blockade of type I IFN receptor [3]: significantly attenuated
antiviral activity against HBV with STING knockdown cells [4]: significantly attenuated
reduction of intrahepatic HBV core DNA versus vehicle (HBV): 1.3 log
OAS1b expression in liver [5]: significantly induced
viperin expression in liver [5]: significantly induced
reduction of average body weight [6]: approximately 8%
time of peak of IFN-β response (IFN-β mRNA): 2 h
IFN-β mRNA expression relative to TLR1/2, TLR3 or TLR7 agonists (IFN-β mRNA; 125 μM, 2 h post treatment): approximately 100 fold
time of peak of inflammatory cytokine response (IL-1 and IL-10) [7]: ≥ 6 h
IFN and inflammatory cytokine response profile ([7]; qRT-PCR, DMXAA compared with TLR agonists): predominant IFN response, but less vigorous inflammatory cytokine response
HBV DNA replication, direct treatment [1]: does not inhibit HBV DNA replication
HBV replication in human hepatoma cells, conditioned media [8]: efficiently suppressed HBV replication
HBV DNA replication, indirect treatment [2]: strong indirect anti-HBV activity; also recorded: inhibits HBV DNA replication in the mouse hepatocytes in a dose-dependent manner

CCNCc1nc2c(N)nc3ccccc3c2n1CC(C)(C)O [gardiquimod]
HBV DNA replication, direct treatment [1]: did not apparently inhibit HBV DNA replication
HBV DNA replication, indirect treatment [2]: potently inhibited HBV DNA replication

CCN(CC)CCOc1ccc2c(c1)C(=O)c1cc(OCCN(CC)CC)ccc1-2 [tilorine, 2,7-Bis[2-(diethylamino)ethoxy]-9-fluorenone]
HBV DNA replication, direct treatment [1]: neither directly nor indirectly inhibited HBV replication
HBV DNA replication, indirect treatment [2]: neither directly nor indirectly inhibited HBV replication

IFN-α
antiviral response after blockade of type I IFN receptor [3]: significantly reduced

Pam3CSK4
amount of HBV capsid protein (HBV capsids): to lesser extents
HBV DNA replication, direct treatment [1]: did not apparently inhibit HBV DNA replication
HBV DNA replication, indirect treatment [2]: potently inhibited HBV DNA replication

TNF-α
HBV DNA replication, cytokine treatment [1]: inhibited HBV DNA replication

poly I:C
amount of HBV capsid protein (HBV capsids): to lesser extents
HBV DNA replication, direct treatment [1]: did not apparently inhibit HBV DNA replication
HBV DNA replication, indirect treatment [2]: potently inhibited HBV DNA replication

B1: IL-6: Recombinant murine IL-6 from PBL InterferonSource (protein, UniProt P08505 25-211, looked up)
Interleukin-6: FPTSQVRRGDFTEDTTPNRPVYTTSQVGGLITHVLWEIVEMRKELCNGNSDCMNNDDALAENNLKLPEIQRNDGCYQTGYNQEICLLKISSGLLEYHSYLEYMKNNLKDNKKDKARVLQRDTETLIHIFNQEVKDLHKIVLPTPISNALLTDKLESQKEWLRTKTIQFILKSLEEFLKVTLRSTRQT
HBV DNA replication, cytokine treatment [1]: only TNF-α inhibited HBV DNA replication
